Experimental data from ChEMBL document CHEMBL3817788, “Natural cholinesterase inhibitors from Myristica cinnamomea King” (Bioorg Med Chem Lett, 2016).

Tests used:
Acetylcholinesterase [1] = experiment: Inhibition of AChE (unknown origin) at 100 ug/ml using acetylthiocholine iodide as substrate incubated for 30 mins by Ellman's microplate assay; conditions: Homo sapiens
[2] = target: Cholinesterase (Equus caballus) (UniProt P81908); experiment: Inhibition of equine serum BChE at 100 ug/ml using S-butyrylthiocholine chloride as substrate incubated for 30 mins by Ellman's microplate assay
Acetylcholinesterase [3] = target: T1, Acetylcholinesterase (Homo sapiens, UniProt P22303); experiment: Inhibition of AChE (unknown origin) using acetylthiocholine iodide as substrate incubated for 30 mins by Ellman's microplate assay
Cholinesterase [4] = target: T2, Cholinesterase (Equus caballus, UniProt P81908); experiment: Inhibition of equine serum BChE using S-butyrylthiocholine chloride as substrate incubated for 30 mins by Ellman's microplate assay
[5] = Selectivity index, ratio of IC50 for equine serum BChE to IC50 for AChE (unknown origin)
[6] = Selectivity index, ratio of IC50 for AChE (unknown origin) to IC50 for equine serum BChE
[7] = Inhibition of Saccharomyces cerevisiae alpha-glucosidase using p-nitrophenyl-alpha-D-glucopyranoside as substrate preincubated for 10 mins followed by substrate addition measured after 10 mins
Acetylcholinesterase [8] = target: T1, Acetylcholinesterase; experiment: Mixed inhibition of AChE (unknown origin) using acetylthiocholine iodide as substrate incubated for 30 mins by Lineweaver-Burk plot analysis
Cholinesterase [9] = target: T2, Cholinesterase; experiment: Mixed inhibition of equine serum BChE using S-butyrylthiocholine chloride as substrate incubated for 30 mins by Lineweaver-Burk plot analysis

T1 sequence (P22303 whole entry): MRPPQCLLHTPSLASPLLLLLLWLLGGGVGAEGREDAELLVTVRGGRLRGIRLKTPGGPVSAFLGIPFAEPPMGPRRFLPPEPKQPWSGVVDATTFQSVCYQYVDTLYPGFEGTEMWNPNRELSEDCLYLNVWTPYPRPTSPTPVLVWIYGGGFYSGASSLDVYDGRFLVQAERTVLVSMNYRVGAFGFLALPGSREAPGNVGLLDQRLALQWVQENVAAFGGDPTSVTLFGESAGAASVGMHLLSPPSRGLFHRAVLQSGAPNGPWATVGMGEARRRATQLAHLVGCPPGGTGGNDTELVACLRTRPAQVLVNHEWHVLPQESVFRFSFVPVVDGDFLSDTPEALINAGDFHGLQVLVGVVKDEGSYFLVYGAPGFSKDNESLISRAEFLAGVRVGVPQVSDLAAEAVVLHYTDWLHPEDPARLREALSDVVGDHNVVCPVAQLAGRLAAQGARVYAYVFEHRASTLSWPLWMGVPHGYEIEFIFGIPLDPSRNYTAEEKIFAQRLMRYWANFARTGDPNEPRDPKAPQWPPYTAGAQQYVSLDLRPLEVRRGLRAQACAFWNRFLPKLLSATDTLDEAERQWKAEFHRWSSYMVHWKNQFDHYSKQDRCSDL
T2 sequence (P81908 whole entry): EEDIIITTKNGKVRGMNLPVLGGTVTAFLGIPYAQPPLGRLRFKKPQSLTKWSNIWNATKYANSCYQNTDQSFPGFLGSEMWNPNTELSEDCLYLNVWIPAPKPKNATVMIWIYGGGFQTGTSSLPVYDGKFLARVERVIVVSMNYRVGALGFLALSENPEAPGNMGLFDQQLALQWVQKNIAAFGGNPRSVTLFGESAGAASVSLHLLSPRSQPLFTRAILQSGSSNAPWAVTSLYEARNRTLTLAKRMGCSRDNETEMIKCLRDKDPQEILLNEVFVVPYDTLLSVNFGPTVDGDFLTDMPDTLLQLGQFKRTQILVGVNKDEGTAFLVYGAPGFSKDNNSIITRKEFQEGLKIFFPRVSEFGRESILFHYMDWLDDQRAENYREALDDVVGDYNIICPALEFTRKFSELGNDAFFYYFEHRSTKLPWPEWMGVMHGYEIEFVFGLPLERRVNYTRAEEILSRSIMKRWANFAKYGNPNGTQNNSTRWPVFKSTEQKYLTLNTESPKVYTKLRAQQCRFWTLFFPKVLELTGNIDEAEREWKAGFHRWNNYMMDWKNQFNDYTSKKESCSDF
Sequence of Cholinesterase (Equus caballus) (P81908 whole entry): as above

Structure (SMILES): O=C(CCCCCCCCc1ccccc1)c1c(O)cccc1O [MALABARICONE A]
- inhibition (Acetylcholinesterase [1]): 97.4%
- inhibition [2]: 69.5%
- IC50 (Acetylcholinesterase [3]): 1.31 µM
- IC50 (Cholinesterase [4]): 39.2 µM
- Ratio IC50 [5]: 33
- Ratio IC50 [6]: 0.04

Structure (SMILES): O=C(CCCCCCCCc1cc(O)c(O)cc1-c1ccc(O)c(C(=O)CCCCCCCCc2ccccc2)c1O)c1c(O)cccc1O
- IC50 [7]: 5.05 µM

Structure (SMILES): O=C(CCCCCCCCc1ccc(O)c(O)c1)c1c(O)ccc(C(CCCCCCCCc2ccc(O)c(O)c2)c2c(O)cccc2O)c1O (centres undefined)
- inhibition (Acetylcholinesterase [1]): 75.4%
- inhibition [2]: 81.1%
- IC50 (Acetylcholinesterase [3]): 12.7 µM
- IC50 (Cholinesterase [4]): 10.5 µM
- Ratio IC50 [5]: 0.83
- Ratio IC50 [6]: 1.2

Structure (SMILES): O=C(CCCCCCCCc1ccc(O)c(O)c1)c1c(O)ccc(C(CCCCCCCCc2ccc(O)cc2)c2c(O)cccc2O)c1O (centres undefined)
- inhibition (Acetylcholinesterase [1]): 91.5%
- inhibition [2]: 86.7%
- IC50 (Acetylcholinesterase [3]): 30.7 µM
- IC50 (Cholinesterase [4]): 12.5 µM
- Ratio IC50 [5]: 0.41
- Ratio IC50 [6]: 2.45

Structure (SMILES): O=C(CCCCCCCCc1ccc(O)cc1)c1c(O)cc(O)cc1O
- inhibition (Acetylcholinesterase [1]): 99.4%
- inhibition [2]: 86.8%
- IC50 (Acetylcholinesterase [3]): 6.44 µM
- IC50 (Cholinesterase [4]): 6.65 µM
- Ratio IC50 [5]: 1.03
- Ratio IC50 [6]: 0.97

Structure (SMILES): O=C1CC(CCCCCCc2ccc(O)cc2)Oc2cccc(O)c21 (centres undefined)
- IC50 [7]: 359 µM

Structure (SMILES): O=C(O)CCCCCCCCc1ccc(O)cc1
- inhibition (Acetylcholinesterase [1]): 45.1%
- inhibition [2]: 49%

Structure (SMILES): O=C(CCCCCCCCc1ccc(O)cc1)c1c(O)cccc1O [MALABARICONE B]
- inhibition (Acetylcholinesterase [1]): 95.9%
- inhibition [2]: 87.3%
- IC50 (Acetylcholinesterase [3]): 1.84 µM
- IC50 (Cholinesterase [4]): 1.76 µM
- Ratio IC50 [5]: 0.96
- Ratio IC50 [6]: 1.05
- Ki (Acetylcholinesterase [8]): 4.33 µM
- Ki (Cholinesterase [9]): 0.56 µM

Structure (SMILES): O=C(CCCCCCCCc1ccc(O)c(O)c1)c1c(O)cccc1O [MALABARICONE C]
- inhibition (Acetylcholinesterase [1]): 97.1%
- inhibition [2]: 94.1%
- IC50 (Acetylcholinesterase [3]): 1.94 µM
- IC50 (Cholinesterase [4]): 2.8 µM
- Ratio IC50 [5]: 1.44
- Ratio IC50 [6]: 0.69
- Ki (Acetylcholinesterase [8]): 5.86 µM
- Ki (Cholinesterase [9]): 11.5 µM
